Structures can show the parent of a compound that is named as a salt. Where two headings read alike, the source gives them in different places.
Columns and labels:
hCA XII = hCA XII (Homo sapiens, UniProt O43570); assay: CA-catalysed CO2 hydration stopped-flow inhibition assay, hCA XII; conditions: for Ki: stopped-flow CO2 hydration, mean ± standard error, three assays; for Selectivity Ratio B = hCA II/XII: ratio of Ki hCA II / Ki hCA XII
Qualitative solubility = type: physicochemical
hCA IX = hCA IX (Homo sapiens, UniProt Q16790); assay: CA-catalysed CO2 hydration stopped-flow inhibition assay, hCA IX; conditions: for Ki: stopped-flow CO2 hydration, mean ± standard error, three assays; for Selectivity Ratio A = hCA II/IX: ratio of Ki hCA II / Ki hCA IX
hCA I = hCA I (Homo sapiens, UniProt P00915); assay: CA-catalysed CO2 hydration stopped-flow inhibition assay, hCA I
Chain of hCA I (P00915 whole entry): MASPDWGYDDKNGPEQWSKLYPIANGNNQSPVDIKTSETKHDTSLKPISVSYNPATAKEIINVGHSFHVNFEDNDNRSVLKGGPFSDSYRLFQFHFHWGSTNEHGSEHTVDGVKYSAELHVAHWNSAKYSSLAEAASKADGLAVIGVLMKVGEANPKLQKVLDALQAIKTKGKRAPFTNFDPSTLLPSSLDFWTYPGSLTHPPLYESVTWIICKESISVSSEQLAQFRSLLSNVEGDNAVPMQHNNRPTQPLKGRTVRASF

hCA II = hCA II (Homo sapiens, UniProt P00918); assay: CA-catalysed CO2 hydration stopped-flow inhibition assay, hCA II
[1] = Ki (nM) hCA II, mean ± standard error, three assays

Chain of hCA XII (O43570 25-354): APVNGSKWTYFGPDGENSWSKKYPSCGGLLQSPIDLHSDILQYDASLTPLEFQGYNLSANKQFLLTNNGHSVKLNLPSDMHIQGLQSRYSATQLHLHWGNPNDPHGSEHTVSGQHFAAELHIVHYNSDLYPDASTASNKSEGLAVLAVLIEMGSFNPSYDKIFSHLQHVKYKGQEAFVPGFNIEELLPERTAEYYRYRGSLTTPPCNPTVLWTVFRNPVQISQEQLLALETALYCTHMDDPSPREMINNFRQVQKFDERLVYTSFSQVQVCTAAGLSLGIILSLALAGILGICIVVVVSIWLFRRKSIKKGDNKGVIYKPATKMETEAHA

melting point [°C] | solubility in water (Qualitative solubility) | Ki (hCA IX; Ki (nM) hCA IX) [nM] | Ki (hCA XII; Ki (nM) hCA XII) [nM] | Structure (SMILES) | other results
313 | insoluble | 559 ± 26 | 309 ± 24 | NS(=O)(=O)c1ccccc1N1C(=O)c2c(Cl)c(Cl)c(Cl)c(Cl)c2C1=O [Compound 10, 2-(4,5,6,7-tetrachloro-1,3-dioxoisoindolin-2-yl) benzenesulphonamide] | –
265 | insoluble | 40 ± 1.5 | 99 ± 3.5 | NS(=O)(=O)c1ccc(N2C(=O)c3c(Cl)c(Cl)c(Cl)c(Cl)c3C2=O)c(Br)c1 [Compound 13, 3-bromo-4-(4,5,6,7-tetrachloro-1,3-dioxoisoindolin-2-yl) benzenesulphonamide] | –
278 | insoluble | 88 ± 7 | 14 ± 1 | NS(=O)(=O)c1ccc(N2C(=O)c3c(Cl)c(Cl)c(Cl)c(Cl)c3C2=O)c(F)c1 [Compound 11, 3-fluoro-4-(4,5,6,7-tetrachloro-1,3-dioxoisoindolin-2-yl) benzenesulphonamide] | –
286 | insoluble | – | 226 ± 13 | NS(=O)(=O)c1ccc(CCN2C(=O)c3c(Cl)c(Cl)c(Cl)c(Cl)c3C2=O)cc1 [Compound 8, 4-(2-(4,5,6,7-tetrachloro-1,3-dioxoisoindolin-2-yl)ethyl)benzenesulphonamide] | –
– | insoluble | 103 ± 5 | – | NS(=O)(=O)c1ccc(CN2C(=O)c3c(Cl)c(Cl)c(Cl)c(Cl)c3C2=O)cc1 [Compound 7, 4-((4,5,6,7-Tetrachloro-1,3-dioxoisoindolin-2-yl) Methyl) Benzenesulphonamide] | –
308 | insoluble | 498 ± 34 | 316 ± 28 | NS(=O)(=O)c1cccc(N2C(=O)c3c(Cl)c(Cl)c(Cl)c(Cl)c3C2=O)c1 [Compound 9, 3-(4,5,6,7-tetrachloro-1,3-dioxoisoindolin-2-yl) benzenesulphonamide] | –
303 | insoluble | 49 ± 0.4 | 22 ± 1.7 | NS(=O)(=O)c1ccc(N2C(=O)c3c(Cl)c(Cl)c(Cl)c(Cl)c3C2=O)c(Cl)c1 [Compound 12, 3-chloro-4-(4,5,6,7-tetrachloro-1,3-dioxoisoindolin-2-yl)benzenesulphonamide] | –

Further lines, the compound ahead of its results:

Structure (SMILES) | melting point [°C] | solubility in water (Qualitative solubility) | Ki (hCA IX; Ki (nM) hCA IX) [nM] | Ki (hCA XII; Ki (nM) hCA XII) [nM] | other results
NS(=O)(=O)c1ccc(S(=O)(=O)Nc2cccc3c(Cl)c[nH]c23)cc1 [IND, Indisulam, reference compound] | – | – | – | – | Ki (hCA XII; read-out: Ki (nM) hCA XII): 3.4 ± 0.2 nM
NS(=O)(=O)c1ccc(N2C(=O)c3cccc4c(S(=O)(=O)O)ccc(c34)C2=O)cc1 (as salt: potassium) [Compound 1, 4-(4-sulfo-1,8-napthalic-1,3-dioxopyridine) potassium benzenesulphonamide] | 277 | – | – | – | –
NS(=O)(=O)c1ccc2sc(N3C(=O)c4c(Cl)c(Cl)c(Cl)c(Cl)c4C3=O)nc2c1 [Compound 3, 2-(4,5,6,7-tetrachloro-1,3-dioxoisoindolin-2-yl) benzo[d]thiazole-5-sulphonamide] | 302.2 | fully soluble | 933 ± 56 | 80 ± 7 | Ki (hCA I): 258 ± 12 nM; Selectivity Ratio A = hCA II/IX (hCA IX): 0.795
NS(=O)(=O)c1ccc2sc(N3C(=O)c4c(Br)c(Br)c(Br)c(Br)c4C3=O)nc2c1 [Compound 4, 2-(4,5,6,7-Tetrabromo-1,3-dioxoisoindolin-2-yl) Benzo[d]Thiazole-5-Sulphonamide] | – | insoluble | 4030 ± 237 | 87 ± 6 | Ki (hCA I): 463 ± 29 nM; Ki (hCA II; [1]): 44 ± 1.9 nM; Selectivity Ratio A = hCA II/IX (hCA IX): 0.011; Selectivity Ratio B = hCA II/XII (hCA XII): 0.506
NS(=O)(=O)c1ccc(N2C(=O)c3c(Cl)c(Cl)c(Cl)c(Cl)c3C2=O)cc1 [Compound 6, 4-(4,5,6,7-tetrachloro-1,3-dioxoisoindolin-2-yl) benzenesulphonamide] | – | insoluble | – | – | –
NS(=O)(=O)c1ccc(CCN2C(=O)C=CC2=O)cc1 [Compound 2, 4-(2-(2,5-dioxo-2H-pyrrol-1(5H)-yl)ethyl)benzenesulphonamide] | 210 | insoluble | 7420 ± 348 | 69 ± 4.5 | –
NS(=O)(=O)c1ccc(N2C(=O)c3cccc4c(S(=O)(=O)O)ccc(c34)C2=O)cc1 [Compound 1, 4-(4-sulfo-1,8-napthalic-1,3-dioxopyridine) potassium benzenesulphonamide] | – | fully soluble | – | – | Ki (hCA I; read-out: Ki (nM) hCA I, stopped-flow CO2 hydration, mean ± standard error, three assays): 49 ± 3.2 nM; Ki (hCA II; read-out: Ki (nM) hCA II, mean ± standard error, three assays): 13 ± 0.9 nM; Ki (hCA IX; read-out: Ki (nM) hCA IX): 7770 ± 145 nM
NS(=O)(=O)c1ccc(N2C(=O)c3ccc([N+](=O)[O-])cc3C2=O)c(F)c1 [Compound 5, 3-fluoro-4-(5-nitro-1,3-dioxoisoindolin-2-yl) benzenesulphonamide] | 232 | insoluble | 4900 ± 300 | 75 ± 4 | Ki (hCA I): 400 ± 31 nM; Ki (hCA II; [1]): 4.6 ± 0.3 nM; Selectivity Ratio B = hCA II/XII (hCA XII): 0.061

Source: publication PMC8308639, “Synthesis and Human Carbonic Anhydrase I, II, IX, and XII Inhibition Studies of Sulphonamides Incorporating Mono-, Bi- and Tricyclic Imide Moieties” (Pharmaceuticals, 2021)
